Reference: patent publication US10550105B2 (Ribon Therapeutics Inc., priority 2018, dated 2020)

Key:
Experiment in all cases: Growth inhibition of cancer cell lines, 72 hrs (CellTiter-Glo)
Type in all cases: cell-based
Hs 578T = details: Homo sapiens, breast, ductal carcinoma
Procedure: (§1) Example C: Inhibition of Cancer Cell Growth by Treatment with PARP7 Inhibitors
(§2) Table A-2 and Table A-3 (below) represents the concentration that causes 50% growth inhibition (GI50) in a panel of cancer cell lines with Compound 18B and Compound 561. Cells were plated into 384-well plates at a pre-specified density in fetal bovine serum-containing media. Cells were treated with compound or vehicle (DMSO) 24 hrs later, and a day zero plate was collected for analysis. Test compound plates were incubated continuously for 72 hrs (Table A-2) or 144 hours (Table A-3) cell growth was assessed using a luminescent cell viability assay (CellTiter-Glo, Promega). The GI50was determined by correcting for the cell count at time zero (time of treatment) and plotting data as percent growth relative to vehicle-treated cells.

KMRC-3 = details: kidney, clear cell renal cell carcinoma
Procedure: as §1, §2

YD-10B = details: upper aerodigestive tract, squamous cell carcinoma
Procedure: as §1, §2

Caki-1 = details: Homo sapiens, kidney, clear cell renal cell carcinoma
Procedure: as §1, §2

FaDu = details: Homo sapiens, upper aerodigestive tract, squamous cell carcinoma
Procedure: as §1, §2

NCI-H2066 = details: lung, small cell carcinoma
Procedure: as §1, §2

CAL 27 = details: Homo sapiens, upper aerodigestive tract, squamous cell carcinoma
Procedure: as §1, §2

NCI-H441 = details: Homo sapiens, lung, adenocarcinoma
Procedure: as §1, §2

COR-L105 = details: Homo sapiens, lung, adenocarcinoma
Procedure: as §1, §2

NCI-H2081 = details: Homo sapiens, lung, not specified
Procedure: as §1, §2

SNU-719 = details: stomach, not specified
Procedure: as §1, §2

GSS = details: stomach, adenocarcinoma
Procedure: as §1, §2

HCC-1195 = details: lung, mixed adenosquamous carcinoma
Procedure: as §1, §2

HCC827 = details: Homo sapiens, lung, adenocarcinoma
Procedure: as §1, §2

TUHR10TKB = details: kidney, not specified
Procedure: as §1, §2

LXF-289 = details: Homo sapiens, lung, adenocarcinoma
Procedure: as §1, §2

HDQ-P1 = details: Homo sapiens, breast, ductal carcinoma
Procedure: as §1, §2

EBC-1 = details: Homo sapiens, lung, squamous cell carcinoma
Procedure: as §1, §2

LS123 = details: Homo sapiens, LS-123, large intestine, adenocarcinoma
Procedure: as §1, §2

NCI-H1963 = details: Homo sapiens, lung, small cell carcinoma
Procedure: as §1, §2

NCI-H1975 = details: Homo sapiens, lung, non small cell carcinoma
Procedure: as §1, §2

GSU = details: stomach, adenocarcinoma
Procedure: as §1, §2

NCI-H1930 = details: Homo sapiens, lung, small cell carcinoma
Procedure: as §1, §2

YH-13 = details: central nervous system, astrocytoma Grade IV
Procedure: as §1, §2

NCI-H2228 = details: Homo sapiens, lung, adenocarcinoma
Procedure: as §1, §2

CFPAC-1 = details: Homo sapiens, pancreas, ductal carcinoma
Procedure: as §1, §2

NCI-H1373 = details: Homo sapiens, lung, adenocarcinoma
Procedure: as §1, §2

Panc 03.27 = details: Homo sapiens, PANC-03-27, pancreas, ductal carcinoma
Procedure: as §1, §2

SW 900 = details: Homo sapiens, SW900, lung, squamous cell carcinoma
Procedure: as §1, §2

TE-8 = details: Homo sapiens, oesophagus, squamous cell carcinoma
Procedure: as §1, §2

NCI-H596 = details: Homo sapiens, lung, mixed adenosquamous carcinoma
Procedure: as §1, §2

MDA-MB-468 = details: Homo sapiens, breast, not specified
Procedure: as §1, §2

IA-LM = details: lung, large cell carcinoma
Procedure: as §1, §2

NCI-H1437 = details: Homo sapiens, lung, adenocarcinoma
Procedure: as §1, §2

JHOS-2 = details: ovary, adenocarcinoma
Procedure: as §1, §2

SK-BR-3 = details: Homo sapiens, breast, not specified
Procedure: as §1, §2

SW620 = details: Homo sapiens, SW-620, large intestine, adenocarcinoma
Procedure: as §1, §2

COLO-680N = details: Homo sapiens, oesophagus, squamous cell carcinoma
Procedure: as §1, §2

KMBC-2 = details: urinary tract, not specified
Procedure: as §1, §2

EFE-184 = details: Homo sapiens, endometrium, not specified
Procedure: as §1, §2

N#Cc1ccc(N2CCN(C(=O)c3cccc(OC[C@@H]4c5ccccc5CN4c4cn[nH]c(=O)c4C(F)(F)F)c3)CC2)nc1 (single isomer, unassigned) [Example 18 Isomer B]
GI50 (Hs 578T): 100 to 1000 nM
GI50 (KMRC-3): 100 to 1000 nM
GI50 (YD-10B): < 100 nM
GI50 (Caki-1): < 100 nM
GI50 (FaDu): 100 to 1000 nM
GI50 (NCI-H2066): 100 to 1000 nM
GI50 (CAL 27): < 100 nM
GI50 (NCI-H441): 100 to 1000 nM
GI50 (COR-L105): 100 to 1000 nM
GI50 (NCI-H2081): 100 to 1000 nM
GI50 (SNU-719): 100 to 1000 nM
GI50 (GSS): 100 to 1000 nM
GI50 (HCC-1195): 100 to 1000 nM
GI50 (HCC827): 100 to 1000 nM
GI50 (TUHR10TKB): < 100 nM
GI50 (LXF-289): 100 to 1000 nM
GI50 (HDQ-P1): 100 to 1000 nM
GI50 (EBC-1): < 100 nM
GI50 (LS123): 100 to 1000 nM
GI50 (NCI-H1963): < 100 nM
GI50 (NCI-H1975): 100 to 1000 nM
GI50 (GSU): < 100 nM
GI50 (NCI-H1930): < 100 nM
GI50 (YH-13): < 100 nM
GI50 (NCI-H2228): 100 to 1000 nM
GI50 (CFPAC-1): 100 to 1000 nM
GI50 (NCI-H1373): < 100 nM
GI50 (Panc 03.27): < 100 nM
GI50 (SW 900): < 100 nM
GI50 (TE-8): < 100 nM
GI50 (NCI-H596): < 100 nM
GI50 (MDA-MB-468): < 100 nM
GI50 (IA-LM): < 100 nM
GI50 (NCI-H1437): < 100 nM
GI50 (JHOS-2): < 100 nM
GI50 (SK-BR-3): 100 to 1000 nM
GI50 (SW620): 100 to 1000 nM
GI50 (COLO-680N): < 100 nM
GI50 (KMBC-2): 100 to 1000 nM
GI50 (EFE-184): < 100 nM
